Data reported in ChEMBL document CHEMBL5375962 (J Med Chem, 2023).
Values after ≈ are worked out from the molar mass of the structure shown. Active and inactive are the calls of the source. The calls are words filed in the database; no cut-off is given here.

What was measured:
[1] = Inhibition of mouse KHK-C
Mus musculus [2] = assay: Reduction in fructose level in 5 hrs fasted C57B6 mouse assessed as maximum effect at 100 mg/kg administered via oral gavage measured upto 180 mins by oral fructose challenge assay; type: functional, organism-based
[3] = Inhibition of mouse KHK-A
[4] = AUC in dog at 1 mg/kg, iv; type: ADME, organism-based, Canis lupus familiaris; set-up: dose 1 mg/kg, route iv; details: in vivo
Hepatocyte = assay: Cytotoxicity against rat Primary hepatocyte; type: toxicity, cell-based; details: hepatocytes
[5] = Clearance in rat at 1 mg/kg, iv measured after 12 hrs; type: ADME, organism-based; details: in vivo
[6] = Metabolic stability in rat liver microsomes assessed as compound degradation measured after 30 mins; type: ADME, Microsome; details: read-out: Drug degradation
[7] = Permeability in MDCK cells assessed as drug transport measured over 1 hr in presence of P-gp; type: ADME, cell-based, Canis lupus familiaris; details: dog
[8] = Thermodynamic solubility of the compound […] at pH 7.4; type: physicochemical; details: read-out: Therm_solubility
Ketohexokinase [9] = target: T1, Ketohexokinase (Homo sapiens, UniProt P50053); assay: Inhibition of KHK in human HepG2 cells incubated for 3 hrs by Rapidfire MS analysis; type: cell-based
T1 sequence (P50053 whole entry): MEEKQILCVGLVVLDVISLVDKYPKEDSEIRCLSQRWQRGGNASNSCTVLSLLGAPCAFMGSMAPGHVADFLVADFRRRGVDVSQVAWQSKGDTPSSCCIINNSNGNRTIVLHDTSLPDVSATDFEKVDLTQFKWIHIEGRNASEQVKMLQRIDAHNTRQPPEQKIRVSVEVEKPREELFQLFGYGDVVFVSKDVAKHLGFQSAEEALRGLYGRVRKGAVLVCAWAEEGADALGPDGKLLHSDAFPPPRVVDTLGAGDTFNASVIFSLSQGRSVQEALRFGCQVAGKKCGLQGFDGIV

[10] = Metabolic stability in dog liver microsomes assessed as compound degradation measured after 30 mins; type: ADME, Canis lupus familiaris, Microsome; details: read-out: Drug degradation
[11] = AUC in rat at 1 mg/kg, iv measured after 12 hrs; type: ADME, organism-based; set-up: time 12 hrs, dose 1 mg/kg, route iv; details: in vivo
[12] = Metabolic stability in human liver microsomes assessed as compound degradation measured after 30 mins; type: ADME, Microsome; details: read-out: Drug degradation
[13] = Cmax in dog at 1 mg/kg, iv; type: ADME, organism-based, Canis lupus familiaris; set-up: dose 1 mg/kg, route iv; details: in vivo
[14] = Clearance in rat hepatocytes measured per 10^6 cells; type: ADME, cell-based, Hepatocyte; details: read-out: CLH
[15] = Volume of distribution in dog at 1 mg/kg, iv; type: ADME, organism-based, Canis lupus familiaris; details: in vivo
[16] = Metabolic stability in mouse liver microsomes assessed as compound degradation measured after 30 mins; type: ADME, Microsome; details: read-out: Drug degradation
[17] = Half life in dog at 1 mg/kg, iv; type: ADME, organism-based, Canis lupus familiaris; details: in vivo
[18] = Cmax in rat at 1 mg/kg, iv measured after 12 hrs; type: ADME, organism-based; set-up: dose 1 mg/kg, time 12 hrs, route iv; details: in vivo
[19] = Clearance in dog hepatocytes measured per 10^6 cells; type: ADME, cell-based, Canis lupus familiaris, Hepatocyte; details: read-out: CLH
[20] = Clearance in human hepatocytes measured per 10^6 cells; type: ADME, cell-based, Hepatocyte; details: read-out: CLH
[21] = Volume of distribution in rat at 1 mg/kg, iv measured after 12 hrs; type: ADME, organism-based; details: in vivo
[22] = Clearance in dog at 1 mg/kg, iv; type: ADME, organism-based, Canis lupus familiaris; details: in vivo
[23] = Half life in rat at 1 mg/kg, iv measured after 12 hrs; type: ADME, organism-based; details: in vivo
[24] = AUC in rat at 2 mg/kg, po measured after 12 hrs; type: ADME, organism-based; set-up: time 12 hrs, dose 2 mg/kg, route po; details: in vivo
[25] = Drug distribution in mouse heart at 30 mg/kg, po measured at 180 mins; type: ADME, organism-based; details: in vivo, 3 h
Mus musculus [26] = assay: Reduction in fructose level in 5 hrs fasted C57B6 mouse by measuring pharmacodynamic response administered via oral gavage for 30 mins followed by oral fructose challenge and measured upto 180 mins by oral fructose tolerance test; type: functional; details: dose 30-100 mg/kg, time […]
[27] = Drug distribution in mouse kidney at 30 mg/kg, po measured at 180 mins; type: ADME, organism-based; details: in vivo, 3 h
[28] = Unbound fraction in rat plasma at 1 uM; type: ADME, cell-free
[29] = Drug distribution in mouse liver at 30 mg/kg, po measured at 180 mins; type: ADME, organism-based; details: in vivo, 3 h
[30] = Tmax in dog at 2 mg/kg, po; type: ADME, organism-based, Canis lupus familiaris; details: in vivo
[31] = Oral bioavailability in rat at 2 mg/kg measured after 12 hrs; type: ADME, organism-based; details: in vivo
[32] = Cmax in dog at 2 mg/kg, po; type: ADME, organism-based, Canis lupus familiaris; set-up: dose 2 mg/kg, route po; details: in vivo
[33] = Half life in dog at 2 mg/kg, po; type: ADME, organism-based, Canis lupus familiaris; details: in vivo
[34] = Cmax in rat at 2 mg/kg, po measured after 12 hrs; type: ADME, organism-based; set-up: time 12 hrs, dose 2 mg/kg, route po; details: in vivo
[35] = Oral bioavailability in dog at 2 mg/kg; type: ADME, organism-based, Canis lupus familiaris; details: in vivo
[36] = Unbound fraction in mouse plasma at 1 uM; type: ADME, cell-free
[37] = Tmax in rat at 2 mg/kg, po measured after 12 hrs; type: ADME, organism-based; details: in vivo
[38] = AUC in dog at 2 mg/kg, po; type: ADME, organism-based, Canis lupus familiaris; set-up: dose 2 mg/kg, route po; details: in vivo
Ketohexokinase [39] = target: T1, Ketohexokinase; assay: Inhibition of human KHK-C preincubated for 15 mins followed by substrate addition and measured after 20 mins in presence of ATP by Rapidfire MS analysis
[40] = Unbound fraction in dog plasma at 1 uM; type: ADME, cell-free, Canis lupus familiaris
[41] = Unbound fraction in human plasma at 1 uM; type: ADME, cell-free
[42] = Half life in rat at 2 mg/kg, po measured after 12 hrs; type: ADME, organism-based; details: in vivo

## C[C@H]1CCN1c1nc(N2C[C@@H]3[C@@H](CC(=O)O)[C@@H]3C2)cc(C(F)(F)F)n1 [PF-06835919]
[1]
  IC50: 0.02 µM
Mus musculus [2]
  Activity: Active
[3]
  IC50: 0.03 µM

## OC[C@H]1CCN1c1nc(-c2cnn(C3CNC3)c2)cc(C(F)(F)F)n1
[4]
  AUC: 1.31 µM·h
Hepatocyte
  LC20: > 50 µM
[5]
  clearance: 5.4 L/h/kg
[6]
  metabolised at 0.5 h: 0%
[7]
  Drug transport: 2.2%
[8]
  solubility thermodynamic: 0.69 mg/mL (≈ 1950 µM)
Ketohexokinase [9]
  IC50: 0.04 µM
[10]
  metabolised at 0.5 h: 0%
[11]
  AUC at 12 h: 0.531 µM·h
[1]
  IC50: 0.032 µM
[12]
  metabolised at 0.5 h: 4%
[13]
  Cmax: 2.73 µM
[14]
  hepatocyte CLint: 10 µL/min/1e6 cells
[15]
  Vd: 5.2 L/kg
[16]
  metabolised at 0.5 h: 20%
[17]
  half-life: 3.7 h
[18]
  Cmax: 1.05 µM
[19]
  hepatocyte CLint: 2 µL/min/1e6 cells
[20]
  hepatocyte CLint: < 1.8 µL/min/1e6 cells
[3]
  IC50: 0.108 µM
[21]
  Vd: 3.4 L/kg
[22]
  clearance: 2.22 L/h/kg
[23]
  half-life: 0.7 h

## C[C@H]1CCN1c1nc(-c2cnn(CC(=O)N3CCNCC3)c2)cc(C(F)(F)F)n1 [LY-3522348]
[4]
  AUC: 12.9 µM·h
Hepatocyte
  LC20: > 50 µM
[24]
  AUC at 12 h: 11.6 µM·h
[25]
  Drug uptake: Active
Mus musculus [26]
  Activity: Dose-Dependent Effect
[5]
  clearance: 0.36 L/h/kg
[27]
  Drug uptake: Active
[6]
  metabolised at 0.5 h: 18%
[28]
  fraction unbound at 1 µM: 0.18
[7]
  Drug transport: 4.4%
[29]
  Drug uptake: Active
[30]
  Tmax: 1.7 h
[31]
  bioavailability: 83%
[8]
  solubility thermodynamic: 0.52 mg/mL (≈ 1270 µM)
Ketohexokinase [9]
  IC50: 0.041 µM
[32]
  Cmax: 0.657 µM
[10]
  metabolised at 0.5 h: 28%
[33]
  half-life: 37 h
[11]
  AUC at 12 h: 7.06 µM·h
[34]
  Cmax: 0.717 µM
[12]
  metabolised at 0.5 h: 0%
[13]
  Cmax: 3 µM
[35]
  bioavailability: 87%
[14]
  hepatocyte CLint: 2.2 µL/min/1e6 cells
[36]
  fraction unbound at 1 µM: 0.15
[15]
  Vd: 7.8 L/kg
[16]
  metabolised at 0.5 h: 17%
[17]
  half-life: 28 h
[37]
  Tmax: 4.7 h
[18]
  Cmax: 0.942 µM
[38]
  AUC: 23.2 µM·h
[19]
  hepatocyte CLint: < 1.8 µL/min/1e6 cells
[20]
  hepatocyte CLint: < 1.8 µL/min/1e6 cells
Ketohexokinase [39]
  IC50: 0.02 µM
[40]
  fraction unbound at 1 µM: 0.24
[3]
  IC50: 0.014 µM
[21]
  Vd: 6.5 L/kg
[22]
  clearance: 0.18 L/h/kg
[23]
  half-life: 13 h
[41]
  fraction unbound at 1 µM: 0.15
[42]
  half-life: 13 h
